Test results from PubChem BioAssay (NCI).
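Test compounds were applied to cells in 96-well plates for 48 hours at 5 doses. TGI marks complete inhibition of growth.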

Legend:
Assay in all cases: NCI tumour cell line growth inhibition, 48 h
CCRF-CEM leukemia = test system: CCRF-CEM leukemia
MDA-N = test system: MDA-N
NCI-H23 lung = test system: NCI-H23 lung
SK-MEL-5 melanoma = test system: SK-MEL-5 melanoma
U251 CNS = test system: U251 CNS
NCI-H226 lung = test system: NCI-H226 lung
HL-60(TB) leukemia = test system: HL-60(TB) leukemia
EKVX NSCLC = test system: EKVX NSCLC
RXF 393 renal = test system: RXF 393 renal
RPMI-8226 leukemia = test system: RPMI-8226 leukemia
OVCAR-3 ovarian = test system: OVCAR-3 ovarian
MALME-3M melanoma = test system: MALME-3M melanoma
SF-539 CNS = test system: SF-539 CNS
SK-MEL-2 melanoma = test system: SK-MEL-2 melanoma
SW-620 colon = test system: SW-620 colon
NCI-H460 lung = test system: NCI-H460 lung
XF 498 CNS = test system: XF 498 CNS
HCT-15 colon = test system: HCT-15 colon
A549 NSCLC = test system: A549 NSCLC

## CC(=O)[C@]1(O)Cc2c(O)c3c(c(O)c2C(OC2OC(C)C(O)C(O)C2F)C1)C(=O)c1ccccc1C3=O (some centres undefined)
CCRF-CEM leukemia
  TGI: 0.0642 µM
MDA-N
  TGI: 2.67 µM
NCI-H23 lung
  TGI: 0.303 µM
SK-MEL-5 melanoma
  TGI: 0.68 µM
U251 CNS
  TGI: 0.996 µM
NCI-H226 lung
  TGI: 0.341 µM
HL-60(TB) leukemia
  TGI: < 0.0303 µM
EKVX NSCLC
  TGI: 14.7 µM
RXF 393 renal
  TGI: 1.89 µM
RPMI-8226 leukemia
  TGI: 2.36 µM
OVCAR-3 ovarian
  TGI: 6.64 µM
MALME-3M melanoma
  TGI: 1.48 µM
SF-539 CNS
  TGI: 0.374 µM
SK-MEL-2 melanoma
  TGI: 2.88 µM

## CC[C@]12C=CCN3CC[C@@]4(c5ccc(OC)cc5N(C)[C@H]4[C@@](O)(C(=O)OC)[C@@H]1OC(C)=O)[C@@H]32
CCRF-CEM leukemia
  TGI: > 200 µM
SW-620 colon
  TGI: > 200 µM
NCI-H460 lung
  TGI: > 200 µM
NCI-H23 lung
  TGI: > 200 µM
SK-MEL-5 melanoma
  TGI: > 200 µM
U251 CNS
  TGI: > 200 µM
NCI-H226 lung
  TGI: > 200 µM
XF 498 CNS
  TGI: > 200 µM
HL-60(TB) leukemia
  TGI: > 200 µM
EKVX NSCLC
  TGI: > 200 µM
HCT-15 colon
  TGI: > 63.2 µM
RXF 393 renal
  TGI: > 200 µM
A549 NSCLC
  TGI: > 200 µM
RPMI-8226 leukemia
  TGI: > 200 µM
OVCAR-3 ovarian
  TGI: > 112 µM
MALME-3M melanoma
  TGI: > 200 µM
SF-539 CNS
  TGI: > 200 µM
SK-MEL-2 melanoma
  TGI: > 200 µM

## COc1ccc2c(c1)CCCc1cn[nH]c1-2
CCRF-CEM leukemia
  TGI: > 100 µM
SW-620 colon
  TGI: > 100 µM
NCI-H460 lung
  TGI: > 100 µM
NCI-H23 lung
  TGI: > 100 µM
SK-MEL-5 melanoma
  TGI: > 100 µM
U251 CNS
  TGI: > 100 µM
NCI-H226 lung
  TGI: > 100 µM
XF 498 CNS
  TGI: > 100 µM
HL-60(TB) leukemia
  TGI: > 100 µM
EKVX NSCLC
  TGI: > 100 µM
HCT-15 colon
  TGI: > 100 µM
RXF 393 renal
  TGI: > 100 µM
A549 NSCLC
  TGI: > 100 µM
OVCAR-3 ovarian
  TGI: > 100 µM
MALME-3M melanoma
  TGI: > 100 µM
SF-539 CNS
  TGI: > 100 µM
SK-MEL-2 melanoma
  TGI: > 100 µM

## O=C(NCCCNC(=O)c1ccc2cc(O)c(O)cc2c1)c1ccc2cc(O)c(O)cc2c1
CCRF-CEM leukemia
  TGI: 66.3 µM
SW-620 colon
  TGI: > 100 µM
MDA-N
  TGI: > 100 µM
NCI-H460 lung
  TGI: > 100 µM
NCI-H23 lung
  TGI: 63.5 µM
SK-MEL-5 melanoma
  TGI: 48.4 µM
U251 CNS
  TGI: > 100 µM
NCI-H226 lung
  TGI: 57.8 µM
HL-60(TB) leukemia
  TGI: 59.7 µM
EKVX NSCLC
  TGI: > 100 µM
HCT-15 colon
  TGI: > 100 µM
RXF 393 renal
  TGI: 99.7 µM
A549 NSCLC
  TGI: > 100 µM
RPMI-8226 leukemia
  TGI: > 100 µM
MALME-3M melanoma
  TGI: > 100 µM
SF-539 CNS
  TGI: 35.6 µM
SK-MEL-2 melanoma
  TGI: 34 µM

## COC(=O)C1(c2ccc(N(C)C)cc2OC)CCCN(C(=O)Oc2ccccc2[N+](=O)[O-])CCc2c1[nH]c1ccccc21 (centres undefined)
SW-620 colon
  TGI: > 100 µM
MDA-N
  TGI: > 100 µM
NCI-H460 lung
  TGI: > 100 µM
NCI-H23 lung
  TGI: > 100 µM
SK-MEL-5 melanoma
  TGI: > 100 µM
U251 CNS
  TGI: > 100 µM
NCI-H226 lung
  TGI: > 100 µM
HL-60(TB) leukemia
  TGI: > 100 µM
EKVX NSCLC
  TGI: > 100 µM
RXF 393 renal
  TGI: > 100 µM
A549 NSCLC
  TGI: > 100 µM
OVCAR-3 ovarian
  TGI: > 100 µM
MALME-3M melanoma
  TGI: > 100 µM
SF-539 CNS
  TGI: > 100 µM
SK-MEL-2 melanoma
  TGI: > 100 µM

## CC(C(=O)O)c1cnn(-c2ccccc2)c1-n1cccc1 (centres undefined)
CCRF-CEM leukemia
  TGI: > 100 µM
SW-620 colon
  TGI: > 100 µM
NCI-H460 lung
  TGI: > 100 µM
NCI-H23 lung
  TGI: > 100 µM
SK-MEL-5 melanoma
  TGI: > 100 µM
U251 CNS
  TGI: > 100 µM
NCI-H226 lung
  TGI: > 100 µM
XF 498 CNS
  TGI: > 100 µM
HL-60(TB) leukemia
  TGI: > 100 µM
EKVX NSCLC
  TGI: > 100 µM
HCT-15 colon
  TGI: > 100 µM
RXF 393 renal
  TGI: > 100 µM
A549 NSCLC
  TGI: > 100 µM
RPMI-8226 leukemia
  TGI: > 100 µM
OVCAR-3 ovarian
  TGI: > 100 µM
MALME-3M melanoma
  TGI: > 100 µM
SF-539 CNS
  TGI: > 100 µM
SK-MEL-2 melanoma
  TGI: > 100 µM
